The values that follow are results of earlier work, collected in patent publication US20100047451A1, “ACTINIC-RADIATION CURABLE INK COMPOSITION, INK SET, INK JET PRINTING APPARATUS, AND INK JET RECORDING METHOD USING ACTINIC-RADIATION CURABLE INK COMPOSITION” (SEIKO EPSON CORPORATION, priority 2008, published 2010).

For the first series the following is noted: measurements at 25° C.
As for `C=CC(=O)OCC1COC(C)(CC)O1` (stereo not drawn) [(2-Methyl-2-ethyl-1,3-dioxolan-4-yl)methyl acrylate], the Viscosity is 5.1 mPa · s.
Take Polyethylene glycol 200 dimethacrylate: the Viscosity is given as 14 mPa · s.

For the next series the following is noted: primary irritation index.
For `C=C(C)C(=O)OCCCCCCOC(=O)C(=C)C` [1,6-Hexanediol dimethacrylate], the PII is 0.5.
Turning to `C=CC(=O)OCCCCCCCCCOC(=O)C=C` [1,9-Nonanediol diacrylate], the PII is on record as 2.0.
Consider `C=C(C)C(=O)OCC(O)COC(=O)C(=C)C` [2-Hydroxy-1,3-dimethacryloxypropane], for which the PII is recorded as 0.6.
Turning to `C=CC(=O)OCC1COC(C)(CC)O1` (stereo not drawn) [(2-Methyl-2-ethyl-1,3-dioxolan-4-yl)methyl acrylate], the PII is listed as 1.3.
Consider `C=CC(=O)OCC1COC(C)(CC(C)C)O1` (stereo not drawn) [(2-Methyl-2-isobutyl-1,3-dioxolan-4-yl)methyl acrylate], for which the PII was 1.0.
In the case of `C=CC(=O)N1CCOCC1` [Acryloylmorpholine], the PII is on record as 0.5.
On to `C=C(C)C(=O)OCCOCCOC(=O)C(=C)C` [Diethylene glycol dimethacrylate], for which the PII was 0.5.
Take `C=C(C)C(=O)OCCOC(=O)C(=C)C` [Ethylene glycol dimethacrylate]: the PII is 0.6.
For the compound `C=CC(=O)O[C@@H]1C[C@H]2CC[C@]1(C)C2(C)C` [Isobornyl acrylate], the PII was 0.6.
`C=CC(=O)OCCOCCOC` [Methoxy diethylene glycol monoacrylate]: the PII is on record as 0.7.
Regarding `C=C(C)C(=O)OCC(C)(C)COC(=O)C(=C)C` [Neopentyl glycol dimethacrylate], the PII is 0.0.
Turning to `C=CC(=O)OCCOc1ccccc1` [Phenoxyethyl acrylate], the PII is listed as 1.7.
Regarding `C=C(C)C(=O)OCC(CC)(COC(=O)C(=C)C)COC(=O)C(=C)C` [Trimethylolpropane trimethacrylate], the PII was 0.8.
Regarding `C=CC(=O)OCC(C)OCC(C)OCC(C)OC(=O)C=C` (stereo not drawn) [Tripropylene glycol diacrylate], the PII was 1.6.
Glycerol PO-modified triacrylate: the PII is 0.8.
Polyethylene glycol 200 dimethacrylate: the PII was 0.5.
For the compound Polyethylene glycol #400 diacrylate, the PII is 0.4.
For “Trimethylolpropane PO-modified triacrylate”, the PII was 0.1.
As to Trimethylolpropane-modified triacrylate, the PII is 1.5.
